“Also recorded” adds a separate entry of the source. Like-named read-outs stand apart in the source and are kept apart here. Ends that are not written are not given here. Peptide text beside a SMILES is read from it.
Key:
[1] = system: cerebellar microexplants; assay: cerebellar microexplant survival assay, 3-NP/glutamate injury; format: cell-based, rat; settings: for concentration of maximal neuroprotective effect / neuroprotective activity compared to NRP-5 RG: NRP-5 RG analogues
Method: Toxicological and drug administration experiments were designed such that 1/100 parts of toxin and neuroprotective drug were administered simultaneously to the freshly prepared cerebellar microexplants derived from P-4 or P8 rats. Glutamate was prepared as a 50 mM stock solution in MilliQ water while 50 mM 3-nitropropionic acid was pH-adjusted (pH 6.8-7.2) in MilliQ water. The concentrations of the oxidative stress inducing toxin, 3-nitropropionic acid (3-NP), and the excitotoxin, glutamate, in the assay were 0.5 mM each. Lyophilized peptides were reconstituted in PBS or 100 μg/ml human transferrin as a 10 μM stock solution. Subsequently, serial dilutions were made. Cerebellar microexplants were cultivated for 48-72 hours at 34° C., 5% CO2 in air and 100% humidity before they were fixed by increasing amounts of paraformaldehyde (0.4%, 1.2%, 3% and 4%—each treatment 2-3 min).
For statistical analysis of survival, four fields (each field having an area of 0.65 mm^2) of each fixed cerebellar culture with the highest cell densities were chosen, and cells displaying neurite outgrowth were counted. Statistical significance was measured by Student's t-test.
(§1) Laminated cerebellar cortex was extracted from P3/4, P7/8 rat pups and triturated through gauze having a 125 μm pore size to obtain uniformly sized microexplants. After centrifugation for 3 minutes at 61 g and the pellet was resuspended in StartV medium (Biochrom) and the suspension seeded on poly-D-lysine coated coverslips in 6-well plates and incubated for 3 hrs to allow adherence, before 1 ml StartV per well was added. As described previously, glutamate/3-NP and NRP were also added. The explants are cultivated at 34° C. at 5% CO2 and 100% humidity for 48-72 hrs. BrdU was administered at start of cultivation for proliferation rate measurements and cells are counted per microscopic field after 48-72 hrs.
Cerebellar Microexplants were prepared as described in Example 9 with the addition of SDF-1 as described, in addition to glutamate/3-NP, and NRP.
Cerebellar microexplants were prepared as described in Example 9 with the addition of SDF-1, Wortmannin and PD98059 (both Calbiochem), as described, in addition to glutamate/3-NP, and NRP.

[2] = system: mouse neural stem cells; assay: haptotactic migration assay, mouse neural stem cells; format: cell-based
Method: (§2) NRPs were tested for migration-inducing/chemoattractive activity on mouse neural stem cells, EGF-dependent immortalized mouse neural stem cell line MEB5 and wild-type PC-12 cells in a haptotactic migration assay as described below.
(§3) Initial NRP Coating. Control wells of Transwell plates (Coming) with 12 μm pore size were coated in 1.5 ml of the BSA/PBS vehicle. Remaining plates were coated using various concentrations of NRPs ranging between 1-100 ng/ml (prepared in PBS containing 10 ug/ml BSA). The plates were then incubated at 37° C. for 1 hr to coat. Wells were then rinsed 2× with 1 ml sterile PBS.
(§4) Laminin ([…]) for MEB-5 cells, PDL (50 μg/ml)+Matrigel for mouse primary stem cells and fibronectin (25 ug/ml)+matrigel for PC-12 cells were used as extracellular matrix (ECM) coating for the cells. All ECM compounds were diluted in PBS. 1.5 ml of the ECM per well was incubated for 2 hrs at room temperature. The wells were then rinsed once with Iml serum-free media (e.g. NB/B27) followed by 1 ml PBS wash.
A 5 ug/mL PDL/PLL mixture (in PBS) was used to coat inserts. Subsequently the inserts were rinsed with MilliQ water.
Transferring to Media and Cell Seeding: Appropriate medium (MEB-5 cells: DMEM-high glucose+N2 (growth medium supplement from Invitrogen)+10 ng/biotin+2 mM L-glutamine, primary stem cells: NSA-medium from Euroclone and for PC-12 cells: NB/B27 medium) was transferred into the 12-well plates. […] Plates were fixed at 1-2 days in vitro (DIV).
Fixation: Inserts were discarded and wells fixed in successive dilutions of PFA (0.4, 1.2, 3 and 4%) for 3-5min in each dilution. […] The wells were rinsed and stored in PBS until counting.
A haptotactic migration assay was performed according to the description of Example 10 using rat NRP-9SD (SEQ ID NO:34) (4 nM) and mouse NRP-7SW (SEQ ID NO:24) (0.4 nM) as attractants in a Boyden chamber

[3] = system: MEB-5 cells; assay: haptotactic migration assay, MEB-5 cells; format: cell-based, mouse; settings: 10 ng/ml coating, 200,000 cells
Method: as §2, §3, §4
(§5) A 5 ug/mL PDL/PLL mixture (in PBS) was used to coat inserts. Subsequently the inserts were rinsed with MilliQ water. […]

[4] = system: wild-type PC-12 cells; assay: haptotactic migration assay, PC-12 cells; format: cell-based; settings: 50 ng/ml coating, 200,000 cells
Method: as §2, §3, §4, §5

[5] = system: cerebellar microexplants; assay: cerebellar microexplant proliferation assay under injury (BrdU-positive nuclei); format: cell-based, rat
Method: Using the toxins described above, cerebellar explants were exposed for 24 hours, at the beginning of culturing to dilutions of NRP and 0.1 μM BrdU. Subsequently, 80% of the medium was changed without addition of new toxins and NRPs. The cerebellar cultures were fixed as described above after 3 days in vitro. The detection of the incorporated BrdU level was performed as described previously. Under these conditions, over 99% of the cells in the cerebellar population were neurons. Therefore any increase in cell number after NRP administration was most likely due to neuronal cell proliferation.
For statistical analysis of proliferation four fields (each field having an area of 0.65 mm^2) of each fixed cerebellar culture displaying highest density of BrdU-positive nuclei were chosen, and BrdU-positive nuclei were counted. Statistical significance was measured by Student's t-test.
as §1

[6] = system: OTCs of rat embryonic forebrain; assay: embryonic forebrain OTC migration assay (medial ganglionic eminence to cortical anlage); format: cell-based
Method: OTCs of rat embryonic forebrain were prepared as described. Briefly, pregnant rats at E17 gestation were sacrificed, the fetuses rapidly removed. Coronal slices of the forebrain were cut at 400 μm thickness and placed onto millicell PICM ORG50 membranes (Millipore) in 3 cm Petri dishes containing 1 ml of DMEMI/F12, 6.5 mg/ml glucose, 0.1 mM glutamine and 10% FCS for 34 hrs. Afterwards the medium was exchanged to 1 ml Neurobasal/B27, 6.5 mg/ml glucose, 0.1 mM glutamine, to which 10 μl PBS, NRP, or SDF-1 were added for the indicated concentrations and a small DiI (1,1′-dioctodecycyl-3,3,3′3-tetramethylindocarbocyanine) crystal of uniform size was placed in the medial ganglionic eminence (n=10-15) under a stereomicroscope. After 24 hrs cultivation the total number or migrated neurons dispersed in the ganglionic eminence and cortex were counted under an inverted fluorescent microscope.

[7] = system: neural stem cells; assay: neural stem cell differentiation assay, neuronal differentiation and axonal outgrowth; format: cell-based, mouse; settings: together with BrdU for 24 hrs
Method: Neural stem cells were derived from E15 C3H mice forebrain and cultured as neurospheres in the presence of 20 ng/ml EGF and 10 ng/ml bFGF as described in Gritti et al. (2001). Briefly, timed pregnant mice were sacrificed and the embryos removed. Under sterile conditions the brains were removed and the forebrains dissected. The tissue was dissociated by trituration and pelleted by 75 g centrifugation for 10 minutes and the cells seeded in non-coated tissue culture flasks in NSA medium with growth factors. For passaging neurospheres were triturated and seeded as single cells.
Upon reaching a sufficient size, neurospheres were dissociated by trituration and plated at a density of 200,000 cells per well on laminin-coated 13 mm diameter coverslips that had been placed in Nunc 24 well plates. The plating medium was a 1:1 mixture of DMEM/F12 supplemented with N2 and Neurobasal supplemented with B27 and 2 mM glutamine. To enhance survival after plating the medium contained 2 ng/ml bFGF. After 24 h the medium was replaced with a neuronal differentiation-promoting medium (1:3 mixture of DMEM/F12 supplemented with N2 and Neurobasal supplemented with B27 and 2 mM glutamine) and except for the controls the test compound or IGF-1 was added simultaneously. The medium with fresh compound was exchanged every other day. Seven days after plating the differentiating cells were incubated for 20 minutes in differentiation medium containing 100 ng/ml Syto21 to label the nuclei of viable cells. Subsequently, they were fixed with 4% paraformaldehyde and immunostained with a mouse anti-βIII tubulin antibody and a goat anti-mouse Cy3-coupled secondary antibody.
After staining the coverslips were removed from the tissue culture plate and mounted on […], using Immunofluore fluorescent mounting medium. To analyse the percentage of neurons of total cells, with a Zeiss axiophot microscope, equipped with Axoivision software, at 20× magnification images of two random fields per well were taken in the red (tubulin stained neurons) and green (Syto21 stained nuclei) fluorescent channel. Neurons and nuclei per field were counted and the neuronal percentage of total cell number determined.

AAARRDAPGRAGG-NH2 [SEQ ID NO:45, NRP-5 RG analogue]
concentration of maximal neuroprotective effect [1]: about 1 pM
neuroprotective activity compared to NRP-5 RG [1]: even higher neuroprotective activity than the original NRP-5 RG

COc1cccc(-c2cc(=O)c3ccccc3o2)c1N [PD98509, reference compound]
effect of inhibitor on NRP-induced increase in migrating NSC ([2]; NRP-9 SD (4 nM), 15 μM PD98509): almost completely blocked; also recorded: inhibited
effect of inhibitor alone under vehicle and injury conditions [1]: only modest toxicity
effect of inhibitor / neutralizing antibody on NRP neuroprotective activity ([1]; with NRP-9 SD, antibody 1 μg/ml 72 hours, wortmannin 100 nM): abolished the neuroprotective activity of NRP; also recorded: completely blocked neuroprotective activity

CC(C)C[C@H](NC(=O)[C@H](CS)NC(=O)[C@@H]1CCCN1C(=O)[C@H](Cc1c[nH]cn1)NC(=O)[C@H](CC(C)C)NC(=O)[C@H](CO)NC(=O)CNC(=O)[C@@H]1CCCN1C(=O)[C@H](C)NC(=O)[C@H](CCCNC(=N)N)NC(=O)[C@H](CCCNC(=N)N)NC(=O)[C@H](C)NC(=O)[C@H](CCC(=O)O)NC(=O)[C@@H]1CCCN1C(=O)[C@H](CC(=O)O)NC(=O)[C@@H](N)CCCCN)C(=O)N[C@@H](C)C(=O)N[C@@H](C)C(=O)N[C@@H](CO)C(=O)N[C@@H](CS)C(=O)N[C@@H](CO)C(=O)N[C@@H](C)C(=O)N[C@@H](C)C(=O)NCC(N)=O [NRP-2 segment KG] (H-KDPEARRAPGSLHPCLAASCSAAG-NH2)
cytotoxicity [1]: no cytotoxicity

COC[C@H]1OC(=O)c2coc3c2[C@@]1(C)C1=C(C3=O)[C@@H]2CCC(=O)[C@@]2(C)C[C@H]1OC(C)=O [wortmannin, reference compound]
effect of inhibitor alone under vehicle and injury conditions ([1]; without NRP): no significant effect after vehicle and injury conditions without the NRP

REAAADAPGRAGG-NH2 [SEQ ID NO:44, NRP-5 RG analogue]
concentration of maximal neuroprotective effect [1]: about 1 pM
neuroprotective activity compared to NRP-5 RG [1]: did not significantly change in the activity profile

GTPGRAEAGGQVSPCLAASCSQAYG-NH2 (cysteine pairing not given here) [NRP-4 GG, 25-mer fragment of NRP-4]
more E14 cells migrated compared with BSA-vehicle ([2]; 10 ng/ml coating, 200,000 cells): 93.7%
more MEB-5 cells migrated compared with BSA-vehicle [3]: 195%
more PC-12 cells migrated compared with BSA vehicle [4]: 80.8%

SEPEARRAQGGQIPSERVLSD-NH2 [NRP-9 segment SD, 21-mer of rat NRP-9]
cells attracted compared to control condition ([2]; 4 nM): Nearly four times
concentration range of maximal neuronal survival activity ([1]; 0.5 mM 3-NP/glutamate, 48 hrs): 0.1 to 10 pM

GTPGRAEAGGQ-NH2 [NRP-4 segment GQ, 11-mer of NRP-4]
concentration range of maximal biological activity for survival ([1]; NRP simultaneous with 3-NP/glutamate, 48 hrs): 10-100 nM
survival rates after severe injury ([1]; nanomolar concentrations): 50%
concentrations with statistically significant effects ([1]; simultaneous, 48 hrs, units in value): 10 pM, 100 pM, 10 nM and 100 nM
up regulation in the proliferation rate compared to injured cerebellar microexplants ([5]; 10 nM): 132.2%
concentration at which proliferation induction was observed ([5]; 3-NP/glutamate, NRP and BrdU 24 hrs, counted after 72 hrs): 10 nM

SDF-1: chemokine stromal-derived factor, 63 amino acid long mature human SDF-1 [reference compound]
potency compared to NRP [6]: far less potent than NRP
number of cells attracted ([2]; 100 nM coating): attracted a similar number of cells, as did the 0.4 nM mouse NRP-7SW
neuroprotection compared to NRP [1]: narrow dose range of efficacy; also recorded: only a limited neuroprotective effect
neuroprotection ([1]; 10 nM, 0.5 mM 3-NP/glutamate 48 hrs): less than 30%

REGRRDAPGRAAA-NH2 [SEQ ID NO:46, NRP-5 RG analogue, C-terminal GG-domain substituted]
only concentration with statistically significant effect [1]: 100 nM
neuroprotective activity compared to NRP-5 RG [1]: had less effect than NRP-5 RP

REGRRDAAAAAGG-NH2 [SEQ ID NO:47, NRP-5 RG analogue, PGR-domain substituted]
neuroprotective activity compared to NRP-5 RG [1]: some neuroprotective effect at certain concentrations
concentrations with some neuroprotective effect ([1]; units in value): 0.1 pM, 10 pM and 100 nM

B1: NRP-9: rat ortholog of mouse NRP-7 (protein)
chain: MLKLNEPKPGVVTSEELTGSGIWSSASGPNCSQHRDGEDGGCGRFINLAGNRTQRGCFPEAFPLLQAEPAEYGGPRSGHRLLRGSRGSEPEARRAQGGQIPSERVLSD
modifications: RAT
proliferation rate during differentiation of NSC [7]: an increase in the proliferation rate
